Source: patent US11845752B2, “Substituted imidazo[1,5-a]pyrazines for the treatment of hepatitis B” (ALIGOS THERAPEUTICS, INC., priority 2020, dated 2023)

system: HBV; assay: HBV-DNA antiviral assay using HepG2.117 cells (intracellular HBV DNA by qPCR); type: cell-based, HBV genotype D; conditions: HBV DNA inhibition, 3 days incubation, read-out: EC50
Procedure, shortened: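 HepG2.117 cells (stably integrated genotype D HBV, Tet-off) seeded without doxycycline to induce pgRNA, then treated next day with 9 concentrations (4-fold dilutions, 2% DMSO) for 3 days at 37 °C. Intracellular HBV DNA quantified by qPCR against standard curve, viability by ATP content; inhibition relative to DMSO control, EC50/EC90/CC50 by non-linear regression.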

Row | Compound | EC50
1 | CC1Cn2c(c(C(=O)NCc3ccccc3-n3ccc(C(F)(F)F)n3)n(-c3ccc(N4CC5(CN(C)C5)C4)cc3)c2=O)CN1C(=O)c1ccc(Br)c(C(F)(F)F)c1 (single isomer, unassigned) [Compound 110b] | 50 to 500 nM
2 | CC1Cn2c(c(C(=O)NCc3ccccc3-c3cccc(N)n3)n(-c3ccc(OC4CC4)cc3)c2=O)CN1C(=O)c1ccc(Br)c(Cl)c1 (single isomer, unassigned) [Compound 23b] | < 50 nM
3 | CC1Cn2c(c(C(=O)NCc3ccccc3-c3ncccn3)n(-c3ccc4c(cnn4C[C@@H](C)O)c3)c2=O)CN1C(=O)c1ccc(Br)c(C(F)(F)F)c1 (stereo in doubt) [Compound 91b, (6S*)-7-[4-bromo-3-(trifluoromethyl)benzoyl]-2-{1-[(2R)-2-hydroxypropyl]indazol-5-yl}-6-methyl-3-oxo-N-{[2-(pyrimidin-2-yl)phenyl]methyl}-5H,6H,8H-imidazo[1,5-a]pyrazine-1-carboxamide] | 50 to 500 nM
4 | CC1Cn2c(c(C(=O)NCc3ccccc3-c3ccncn3)n(-c3ccc(OC4CC4)cc3)c2=O)CN1C(=O)c1ccc(Br)c(C(F)(F)F)c1 (single isomer, unassigned) [Compound 13b, 7-[4-bromo-3-(trifluoromethyl)benzoyl]-2-[4-(cyclopropoxy)phenyl]-6-methyl-3-oxo-N-[(2-pyrimidin-4-ylphenyl)methyl]-6,8-dihydro-5H-imidazo[1,5-a]pyrazine-1-carboxamide] | < 50 nM
5 | CC1Cn2c(c(C(=O)NCc3ccccc3-c3ccn(C)n3)n(-c3ccc(OC4CC4)cc3)c2=O)CN1C(=O)c1ccc(Br)c(Cl)c1 (single isomer, unassigned) [Compound 22b] | < 50 nM

same assay, conditions: Hepatitis B virus, HepG2.117, 72 h, HBV DNA inhibition, 3 days incubation, read-out: EC50

Row | Compound | EC50
6 | C[C@H]1Cn2c(c(C(=O)NCc3ccccc3-c3ccncn3)n(-c3ccc(OC[C@](C)(O)C(F)(F)F)cc3)c2=O)CN1C(=O)c1ccc(Br)c(C(F)(F)F)c1 (stereo in doubt) [Compound 83b, rac-(6S)-7-[4-bromo-3-(trifluoromethyl)benzoyl]-6-methyl-3-oxo-N-[(2-pyrimidin-4-ylphenyl)methyl]-2-[4-[rac-(2S)-3,3,3-trifluoro-2-hydroxy-2-methyl-propoxy]phenyl]-6,8-dihydro-5H-imidazo[1,5-a]pyrazine-1-carboxamide] | 50 to 500 nM
7 | C[C@H]1Cn2c(c(C(=O)NCc3ccccc3-c3ncccn3)n(-c3ccc4nn(C[C@@H](O)C(F)(F)F)cc4c3)c2=O)CN1C(=O)c1ccc(Br)c(C(F)(F)F)c1 (mixture of isomers) [Compound 105b, (6SR)-7-[4-bromo-3-(trifluoromethyl)benzoyl]-6-methyl-3-oxo-N-[(2-pyrimidin-2-ylphenyl)methyl]-2-[2-[(2R)-3,3,3-trifluoro-2-hydroxy-propyl]indazol-5-yl]-6,8-dihydro-5H-imidazo[1,5-a]pyrazine-1-carboxamide] | 50 to 500 nM
8 | O=C(NCc1ccccc1)c1c2n(c(=O)n1-c1ccc(N3CC4CC[C@H]3CO4)cc1)CCN(C(=O)c1ccc(Br)c(Cl)c1)C2 (single isomer, unassigned) [Compound 125a] | 50 to 500 nM
9 | CC1Cn2c(c(C(=O)NCc3ccccc3-c3ccncn3)n(-c3ccc(N4CCO[C@H](C)C4)cc3)c2=O)CN1C(=O)c1ccc(Br)c(Cl)c1 (stereo in doubt) [Compound 15a, (6R*)-7-(4-bromo-3-chloro-benzoyl)-6-methyl-2-[4-[(2R)-2-methylmorpholin-4-yl]phenyl]-3-oxo-N-[(2-pyrimidin-4-ylphenyl)methyl]-6,8-dihydro-5H-imidazo[1,5-a]pyrazine-1-carboxamide] | 50 to 500 nM
10 | CC1Cn2c(c(C(=O)NCc3ccccc3-c3cc(N)ncn3)n(-c3ccc(OC4CC4)cc3)c2=O)CN1C(=O)c1ccc(Br)c(Cl)c1 (single isomer, unassigned) [Compound 8a, N-[[2-(6-aminopyrimidin-4-yl)phenyl]methyl]-7-(4-bromo-3-chloro-benzoyl)-2-[4-(cyclopropoxy)phenyl]-6-methyl-3-oxo-6,8-dihydro-5H-imidazo[1,5-a]pyrazine-1-carboxamide] | 50 to 500 nM
11 | C[C@@H]1Cn2c(c(C(=O)NCc3ccccc3-c3ncccn3)n(-c3ccc4c(cnn4C[C@H](O)C(F)(F)F)c3)c2=O)CN1C(=O)c1ccc(Br)c(C(F)(F)F)c1 (mixture of isomers) [Compound 102a, (6RS)-7-[4-bromo-3-(trifluoromethyl)benzoyl]-6-methyl-3-oxo-N-[(2-pyrimidin-2-ylphenyl)methyl]-2-[1-[(2S)-3,3,3-trifluoro-2-hydroxy-propyl]indazol-5-yl]-6,8-dihydro-5H-imidazo[1,5-a]pyrazine-1-carboxamide] | 50 to 500 nM
12 | Cn1cnc2cc(-n3c(C(=O)NCc4ccccc4)c4n(c3=O)CCN(C(=O)c3ccc(Br)c(Cl)c3)C4)ccc21 [Compound 123, N-benzyl-7-(4-bromo-3-chloro-benzoyl)-2-(1-methylbenzimidazol-5-yl)-3-oxo-6,8-dihydro-5H-imidazo[1,5-a]pyrazine-1-carboxamide] | 500 to 5000 nM
13 | C[C@@H](O)Cn1ncc2cc(-n3c(C(=O)NCc4ccccc4-c4ccn(CC(F)(F)F)n4)c4n(c3=O)C[C@H](C)N(C(=O)c3ccc(Br)c(C(F)(F)F)c3)C4)ccc21 (mixture of isomers) [Compound 111b, (6SR)-7-[4-bromo-3-(trifluoromethyl)benzoyl]-2-[1-[(2R)-2-hydroxypropyl]indazol-5-yl]-6-methyl-3-oxo-N-[[2-[1-(2,2,2-trifluoroethyl)pyrazol-3-yl]phenyl]methyl]-6,8-dihydro-5H-imidazo[1,5-a]pyrazine-1-carboxamide] | 50 to 500 nM
14 | CC1Cn2c(c(C(=O)NCc3ccccc3-c3ccccn3)n(-c3ccc(OC4CC4)cc3)c2=O)CN1C(=O)c1ccc(Br)c(C(F)(F)F)c1 (single isomer, unassigned) [Compound 34a] | < 50 nM
15 | C[C@H](COc1ccc(-n2c(C(=O)NCc3ccccc3-c3ncccn3)c3n(c2=O)C[C@@H](C)N(C(=O)c2ccc(Br)c(C(F)(F)F)c2)C3)cc1)N(C)C (single isomer, unassigned) [Compound 97a] | 50 to 500 nM
16 | CC1Cn2c(c(C(=O)NCc3ccccc3-c3nnco3)n(-c3ccc(N4CC5(CN(C)C5)C4)cc3)c2=O)CN1C(=O)c1ccc(Br)c(C(F)(F)F)c1 (single isomer, unassigned) [Compound 112a] | 500 to 5000 nM
17 | C[C@H](O)Cn1ncc2cc(-n3c(C(=O)NCc4ccccc4-c4ncccn4)c4n(c3=O)C[C@@H](C)N(C(=O)c3ccc(Br)c(C(F)(F)F)c3)C4)ccc21 (mixture of isomers) [Compound 94a, (6RS)-7-[4-bromo-3-(trifluoromethyl)benzoyl]-2-[1-[(2S)-2-hydroxypropyl]indazol-5-yl]-6-methyl-3-oxo-N-[(2-pyrimidin-2-ylphenyl)methyl]-6,8-dihydro-5H-imidazo[1,5-a]pyrazine-1-carboxamide] | 50 to 500 nM
18 | Cc1cc(C(=O)N2Cc3c(C(=O)NCc4ccccc4-c4ccncn4)n(-c4ccc(OC5CC5)cc4)c(=O)n3CC2C)ccc1Br (single isomer, unassigned) [Compound 12a, 7-(4-bromo-3-methyl-benzoyl)-2-[4-(cyclopropoxy)phenyl]-6-methyl-3-oxo-N-[(2-pyrimidin-4-ylphenyl)methyl]-6,8-dihydro-5H-imidazo[1,5-a]pyrazine-1-carboxamide] | 50 to 500 nM
19 | Cc1nnc(-c2cccc(F)c2CNC(=O)c2c3n(c(=O)n2-c2ccc(OC4CC4)cc2)CC(C)N(C(=O)c2ccc(Br)c(C(F)(F)F)c2)C3)o1 (single isomer, unassigned) [Compound 33a] | 50 to 500 nM
20 | Cc1nnc(-c2ccccc2CNC(=O)c2c3n(c(=O)n2-c2ccc(OC4CC4)cc2)CC(C)N(C(=O)c2ccc(Br)c(C#N)c2)C3)o1 (single isomer, unassigned) [Compound 5a, (6S*)-7-(4-bromo-3-cyano-benzoyl)-2-[4-(cyclopropoxy)phenyl]-6-methyl-N-[[2-(5-methyl-1,3,4-oxadiazol-2-yl)phenyl]methyl]-3-oxo-6,8-dihydro-5H-imidazo[1,5-a]pyrazine-1-carboxamide] | 500 to 5000 nM
21 | CC1Cn2c(c(C(=O)NCc3ccccc3-c3ccn(CC(F)(F)F)n3)n(-c3ccc(N4CC5(CN(C)C5)C4)cc3)c2=O)CN1C(=O)c1ccc(Br)c(C(F)(F)F)c1 (single isomer, unassigned) [Compound 99a] | 50 to 500 nM
22 | CC1Cn2c(c(C(=O)NCc3ccccc3-c3cccnn3)n(-c3ccc(OCC(C)(O)C(F)(F)F)cc3)c2=O)CN1C(=O)c1ccc(Br)c(C(F)(F)F)c1 (stereo not shown) [Compound 85a, 7-(4-bromo-3-(trifluoromethyl)benzoyl)-6-methyl-3-oxo-N-(2-(pyridazin-3-yl)benzyl)-2-(4-(3,3,3-trifluoro-2-hydroxy-2-methylpropoxy)phenyl)-2,3,5,6,7,8-hexahydroimidazo[1,5-a]pyrazine-1-carboxamide] | 50 to 500 nM
23 | C[C@H](O)COc1ccc(-n2c(C(=O)NCc3ccccc3-c3ccncn3)c3n(c2=O)C[C@H](C)N(C(=O)c2ccc(Br)c(C(F)(F)F)c2)C3)cc1 (mixture of isomers) [Compound 58b, (6SR)-7-[4-bromo-3-(trifluoromethyl)benzoyl]-2-[4-[(2S)-2-hydroxypropoxy]phenyl]-6-methyl-3-oxo-N-[(2-pyrimidin-4-ylphenyl)methyl]-6,8-dihydro-5H-imidazo[1,5-a]pyrazine-1-carboxamide] | < 50 nM
24 | C[C@H]1Cn2c(c(C(=O)NCc3ccccc3-c3cccnn3)n(-c3ccc(OC[C@H](O)C(F)(F)F)cc3)c2=O)CN1C(=O)c1ccc(Br)c(C(F)(F)F)c1 (mixture of isomers) [Compound 67b, (6SR)-7-[4-bromo-3-(trifluoromethyl)benzoyl]-6-methyl-3-oxo-N-[(2-pyridazin-3-ylphenyl)methyl]-2-[4-[(2S)-3,3,3-trifluoro-2-hydroxy-propoxy]phenyl]-6,8-dihydro-5H-imidazo[1,5-a]pyrazine-1-carboxamide] | < 50 nM
25 | CC1Cn2c(c(C(=O)NCc3ccccc3-c3ccncn3)n(-c3ccc4nn(CC(F)(F)F)cc4c3)c2=O)CN1C(=O)c1ccc(Br)c(C(F)(F)F)c1 (single isomer, unassigned) [Compound 79a] | 50 to 500 nM
